Results on 19 compounds are retold here after patent US10717716B2, “1,3,4-oxadiazole derivative compounds as histone deacetylase 6 inhibitor, and the pharmaceutical composition comprising the same” (Chong Kun Dang Pharmaceutical Corp., priority 2015, dated 2020).

The target in the experiment is T1, human recombinant HDAC6 (Homo sapiens, UniProt Q9UBN7).
T1 construct: purchased Calbiochem 382180
T1 sequence (Q9UBN7 1-1215): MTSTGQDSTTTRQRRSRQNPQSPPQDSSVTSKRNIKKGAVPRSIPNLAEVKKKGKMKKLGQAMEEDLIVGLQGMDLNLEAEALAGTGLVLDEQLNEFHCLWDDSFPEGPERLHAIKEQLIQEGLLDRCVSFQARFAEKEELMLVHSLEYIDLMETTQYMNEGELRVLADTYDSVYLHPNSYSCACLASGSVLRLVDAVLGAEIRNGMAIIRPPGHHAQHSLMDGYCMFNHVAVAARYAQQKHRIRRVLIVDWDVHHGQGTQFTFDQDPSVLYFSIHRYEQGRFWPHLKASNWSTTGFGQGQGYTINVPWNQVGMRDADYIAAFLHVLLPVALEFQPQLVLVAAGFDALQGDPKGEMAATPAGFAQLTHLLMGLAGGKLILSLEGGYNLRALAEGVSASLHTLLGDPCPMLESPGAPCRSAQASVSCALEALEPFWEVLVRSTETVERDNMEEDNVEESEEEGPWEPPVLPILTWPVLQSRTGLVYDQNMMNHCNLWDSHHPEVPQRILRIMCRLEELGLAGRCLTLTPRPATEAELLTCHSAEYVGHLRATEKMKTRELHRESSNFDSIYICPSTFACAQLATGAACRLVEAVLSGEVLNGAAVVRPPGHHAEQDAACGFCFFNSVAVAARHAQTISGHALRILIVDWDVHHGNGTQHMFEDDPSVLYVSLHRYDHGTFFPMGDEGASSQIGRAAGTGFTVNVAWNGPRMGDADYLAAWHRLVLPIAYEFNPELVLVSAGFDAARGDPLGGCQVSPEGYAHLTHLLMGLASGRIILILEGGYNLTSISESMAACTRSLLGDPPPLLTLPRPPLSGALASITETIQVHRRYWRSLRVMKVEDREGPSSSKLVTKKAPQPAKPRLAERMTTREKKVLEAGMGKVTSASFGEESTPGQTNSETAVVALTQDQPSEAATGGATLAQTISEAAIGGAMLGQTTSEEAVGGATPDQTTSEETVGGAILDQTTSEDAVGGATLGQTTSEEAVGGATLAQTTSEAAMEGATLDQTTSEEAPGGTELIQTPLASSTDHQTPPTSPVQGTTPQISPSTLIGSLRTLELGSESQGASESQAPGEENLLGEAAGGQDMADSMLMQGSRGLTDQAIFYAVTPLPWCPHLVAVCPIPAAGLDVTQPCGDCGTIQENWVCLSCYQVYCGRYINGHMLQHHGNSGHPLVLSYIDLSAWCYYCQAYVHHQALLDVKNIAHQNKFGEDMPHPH
Nature of the experiment: HDAC6 enzyme activity inhibition assay (HDAC Fluorimetric Drug Discovery Kit). The experiment is classed as biochemical. The conditions noted are these: for HDAC6 selectivity (fold): HDAC6 over HDAC1; for IC50: human recombinant HDAC6, same protocol as HDAC1, read-out: HDAC6. The method, then:
In order to examine the HDAC6 selectivity of the compounds of formula I of the present invention by HDAC1 and HDAC6 enzymatic activity inhibition assays, an experiment was performed using a conventional substance as a control.
HDAC enzyme activity was measured using a HDAC Fluorimetric Drug Discovery Kit (BML-AK511, 516, Enzo Life Science). For the HDAC1 enzyme activity test, human recombinant HDAC1 (BML-SE456) was used as an enzyme source, and Fluor de Lys®-“SIRT1 (BNL-KI177) was used as a substrate. A 5-fold dilution of the compound was seeded into a 96-well plate, and then 0.3 μg of the enzyme and 10 μM of the substrate were added to each well of the plate and allowed to react at 30° C. for 60 minutes. Then, Fluor de Lys®-Developer II (BML-KI176) was added thereto and allowed to react for 30 minutes, after which the fluorescence value (Ex 360, Em 460) was measured using a multi-plate reader (Flexstation 3, Molecular Device). The HDAC6 enzyme was tested using human recombinant HDAC6 (382180) (Calbiochem) according to the same protocol as the HDAC1 enzyme activity test method. Based on the resulting values, each IC5, value was calculated using GraphPad Prism4.0 program.

In the case of `CCN(Cc1ccc(-c2nnc(C(F)(F)F)o2)cc1)C(=O)N1CCS(=O)(=O)CC1` [Compound 21375, N-ethyl-N-(4-(5-(trifluoromethyl)-1,3,4-oxadiazol-2-yl)benzyl)thiomorpholine-4-carboxamide 1,1-dioxide], the “HDAC6 selectivity (fold)” value is reported as 6 fold and the IC50 turned out to be 1750 nM.
As for `C[C@@H]1CN(C(=O)N(Cc2ccc(-c3nnc(C(F)(F)F)o3)cc2)c2ccccc2)C[C@H](C)N1Cc1ccccc1` [Compound 21376, (3S,5R)-4-Benzyl-3,5-dimethyl-N-phenyl-N-(4-(5-(trifluoromethyl)-1,3,4-oxadiazol-2-yl)benzyl)piperazine-1-carboxamide], the “HDAC6 selectivity (fold)” value is on record as 22 fold and the IC50 came to 448 nM.
The corresponding values for `O=C(N1CCC(F)(F)CC1)N(Cc1ccc(-c2nnc(C(F)(F)F)o2)cc1)c1ccccc1` [Compound 21377, 4,4-Difluoro-N-phenyl-N-(4-(5-(trifluoromethyl)-1,3,4-oxadiazol-2-yl)benzyl)piperidine-1-carboxamide] are 30 fold and 334 nM.
Take `CN1CCN(C(=O)N(Cc2ccc(-c3nnc(C(F)F)o3)cc2F)c2ccccc2)CC1` [Compound 21378, N-(4-(5-(difluoromethyl)-1,3,4-oxadiazol-2-yl)-2-fluorobenzyl)-4-methyl-N-phenylpiperazine-1-carboxamide]: the “HDAC6 selectivity (fold)” value came to 500 fold and the IC50 came out at 20 nM.
Consider `CN1CCCN(C(=O)N(Cc2ccc(-c3nnc(C(F)(F)F)o3)cc2)c2ccccc2)CC1` [Compound 21379, 4-Methyl-N-phenyl-N-(4-(5-(trifluoromethyl)-1,3,4-oxadiazol-2-yl)benzyl)-1,4-diazepane-1-carboxamide], for which the “HDAC6 selectivity (fold)” value is 132 fold and the IC50 amounted to 76 nM.
The corresponding values for `C[C@@H]1CN(C(=O)N(Cc2ccc(-c3nnc(C(F)(F)F)o3)cc2)c2ccccc2)C[C@H](C)O1` [Compound 21380, (2S,6R)-2,6-Dimethyl-N-phenyl-N-(4-(5-(trifluoromethyl)-1,3,4-oxadiazol-2-yl)benzyl) morpholine-4-carboxamide] are 61 fold and 165 nM.
The corresponding values for `CC(C)(C)N1CCN(C(=O)N(Cc2ccc(-c3nnc(C(F)(F)F)o3)cc2)c2ccccc2)CC1` [Compound 21381, 4-(Tert-butyl)-N-phenyl-N-(4-(5-(trifluoromethyl)-1,3,4-oxadiazol-2-yl)benzyl)piperazine-1-carboxamide] are 76 fold and 132 nM.
Regarding `CC(C)(C)N1CCN(C(=O)N(Cc2ccc(-c3nnc(C(F)(F)F)o3)cc2F)c2ccccc2)CC1` [Compound 21382, 4-(Tert-butyl)-N-(2-fluoro-4-(5-(trifluoromethyl)-1,3,4-oxadiazol-2-yl)benzyl)-N-phenylpiperazine-1-carboxamide], the “HDAC6 selectivity (fold)” value was 127 fold and the IC50 was determined as 79 nM.
For `CC(C)(C)N1CCN(C(=O)N(Cc2ccc(-c3nnc(C(F)F)o3)cc2F)c2ccccc2)CC1` [Compound 21383, 4-(Tert-butyl)-N-(4-(5-(difluoromethyl)-1,3,4-oxadiazol-2-yl)-2-fluorobenzyl)-N-phenylpiperazine-1-carboxamide], the “HDAC6 selectivity (fold)” value is reported as 200 fold and the IC50 was 50 nM.
Consider `O=C(N1CCN(CCO)CC1)N(Cc1ccc(-c2nnc(C(F)(F)F)o2)cc1)c1ccccc1` [Compound 21384, 4-(2-Hydroxyethyl)-N-phenyl-N-(4-(5-(trifluoromethyl)-1,3,4-oxadiazol-2-yl)benzyl)piperazine-1-carboxamide], for which the “HDAC6 selectivity (fold)” value was determined as 127 fold and the IC50 was 79 nM.
The corresponding values for `C[C@@H]1CN(C(=O)N(Cc2ccc(-c3nnc(C(F)(F)F)o3)cc2)c2ccccc2)C[C@H](C)N1` [Compound 21385, (3S,5R)-3,5-Dimethyl-N-phenyl-N-(4-(5-(trifluoromethyl)-1,3,4-oxadiazol-2-yl)benzyl)piperazine-1-carboxamide] are 175 fold and 57 nM.
The corresponding values for `C[C@@H]1CN(C(=O)N(Cc2ccc(-c3nnc(C(F)(F)F)o3)cc2)c2ccccc2)C[C@H](C)N1C` [Compound 21386, (3R,5S)-3,4,5-Trimethyl-N-phenyl-N-(4-(5-(trifluoromethyl)-1,3,4-oxadiazol-2-yl)benzyl)piperazine-1-carboxamide] are 213 fold and 47 nM.
The corresponding values for `CC(=O)N1[C@H](C)CN(C(=O)N(Cc2ccc(-c3nnc(C(F)(F)F)o3)cc2)c2ccccc2)C[C@@H]1C` [Compound 21387, (3R,5S)-4-Acetyl-3,5-dimethyl-N-phenyl-N-(4-(5-(trifluoromethyl)-1,3,4-oxadiazol-2-yl)benzyl)piperazine-1-carboxamide] are 41 fold and 241 nM.
Turning to `C[C@@H]1CN(C(=O)N(Cc2ccc(-c3nnc(C(F)(F)F)o3)cc2)c2ccccc2)C[C@H](C)N1S(C)(=O)=O` [Compound 21388, (3R,5S)-3,5-Dimethyl-4-(methylsulfonyl)-N-phenyl-N-(4-(5-(trifluoromethyl)-1,3,4-oxadiazol-2-yl)benzyl)piperazine-1-carboxamide], the “HDAC6 selectivity (fold)” value is 42 fold and the IC50 was 240 nM.
On to `O=C(N1CCS(=O)(=O)CC1)N(Cc1ccc(-c2nnc(C(F)(F)F)o2)cc1)c1cccc(C(F)(F)F)c1` [Compound 21391, N-(4-(5-(trifluoromethyl)-1,3,4-oxadiazol-2-yl)benzyl)-N-(3-(trifluoromethyl)phenyl)thiomorpholine-4-carboxamide 1,1-dioxide], for which the “HDAC6 selectivity (fold)” value was found to be 27 fold and the IC50 turned out to be 366 nM.
As for `O=C(N1CCS(=O)(=O)CC1)N(Cc1ccc(-c2nnc(C(F)(F)F)o2)cc1)c1cccc(F)c1` [Compound 21392, N-(3-fluorophenyl)-N-(4-(5-(trifluoromethyl)-1,3,4-oxadiazol-2-yl)benzyl)thiomorpholine-4-carboxamide 1,1-dioxide], the “HDAC6 selectivity (fold)” value is reported as 65 fold and the IC50 worked out at 153 nM.
For the compound `O=C(N1CCS(=O)(=O)CC1)N(Cc1ccc(-c2nnc(C(F)(F)F)o2)cc1)c1ccc(Cl)cc1` [Compound 21394, N-(4-chlorophenyl)-N-(4-(5-(trifluoromethyl)-1,3,4-oxadiazol-2-yl)benzyl)thiomorpholine-4-carboxamide 1,1-dioxide], the “HDAC6 selectivity (fold)” value came out at 56 fold and the IC50 was found to be 177 nM.
The corresponding values for `O=C(N1CCS(=O)(=O)CC1)N(Cc1ccc(-c2nnc(C(F)(F)F)o2)cc1)c1cccc(Cl)c1` [Compound 21395, N-(3-chlorophenyl)-N-(4-(5-(trifluoromethyl)-1,3,4-oxadiazol-2-yl)benzyl)thiomorpholine-4-carboxamide 1,1-dioxide] are 137 fold and 73 nM.
The corresponding values for `CC(C)(O)CN1CCN(C(=O)N(Cc2ccc(-c3nnc(C(F)(F)F)o3)cc2)c2ccccc2)CC1` [Compound 21396, 4-(2-hydroxy-2-methylpropyl)-N-phenyl-N-(4-(5-(trifluoromethyl)-1,3,4-oxadiazol-2-yl)benzyl)piperazine-1-carboxamide] are 34 fold and 292 nM.
